Test results: publication PMC10998594, “Structural and mechanistic basis of the central energy-converting methyltransferase complex of methanogenesis” (Proceedings of the National Academy of Sciences of the …, 2024)

Target: T1, MtrABCDEFG; Mtr(ABCDEFG)3; N5-methyl-tetrahydromethanopterin: coenzyme M methyltransferase core complex (Methanothermobacter marburgensis, UniProt P80183+P80185+P80186)
T1 construct: gene mtrE; native purification from M. marburgensis membranes (DDM/LMNG); trimer of MtrABCDEFG protomers, 430 kDa; MtrH not visible; soluble MtrA domain disordered, only MtrA 178-238 seen; printed lengths MtrB 100, MtrC 267, MtrD 233, MtrE 295, MtrF 68, MtrG 86; with Tetrahydromethanopterin S-methyltransferase subunit A; Tetrahydromethanopterin S-methyltransferase subunit B; Tetrahydromethanopterin S-methyltransferase subunit F; Tetrahydromethanopterin S-methyltransferase subunit G
T1 sequence (P80183 whole entry, looked up, the tested form may be a part): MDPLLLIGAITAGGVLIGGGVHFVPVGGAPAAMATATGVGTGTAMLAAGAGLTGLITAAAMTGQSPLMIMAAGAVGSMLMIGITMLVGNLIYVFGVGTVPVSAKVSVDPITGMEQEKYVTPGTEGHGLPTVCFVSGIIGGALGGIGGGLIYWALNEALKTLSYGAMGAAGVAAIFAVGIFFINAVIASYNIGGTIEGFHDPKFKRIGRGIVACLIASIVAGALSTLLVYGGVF
T1 sequence (P80185 whole entry, looked up, the tested form may be a part): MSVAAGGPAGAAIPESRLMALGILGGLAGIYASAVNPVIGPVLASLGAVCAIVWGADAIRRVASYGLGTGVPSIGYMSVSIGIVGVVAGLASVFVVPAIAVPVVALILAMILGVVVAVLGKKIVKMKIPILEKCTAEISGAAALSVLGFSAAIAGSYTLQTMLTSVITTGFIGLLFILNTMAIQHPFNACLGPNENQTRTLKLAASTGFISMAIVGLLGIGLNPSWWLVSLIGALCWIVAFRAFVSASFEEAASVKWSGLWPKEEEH
T1 sequence (P80186 whole entry, looked up, the tested form may be a part): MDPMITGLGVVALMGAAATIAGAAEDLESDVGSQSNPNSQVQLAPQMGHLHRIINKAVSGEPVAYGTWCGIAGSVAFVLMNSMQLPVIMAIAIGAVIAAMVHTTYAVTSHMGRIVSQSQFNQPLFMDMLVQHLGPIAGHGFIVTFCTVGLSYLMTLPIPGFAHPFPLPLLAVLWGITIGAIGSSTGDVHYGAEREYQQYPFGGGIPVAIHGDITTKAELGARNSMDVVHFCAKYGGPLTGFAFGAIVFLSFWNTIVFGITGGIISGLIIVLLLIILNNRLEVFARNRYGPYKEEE
Test: cryo-EM structure, […] A
Format: binding
Conditions: 2 mM CoM, pH 7, 80 mM NaCl; site at wall of MtrCDE cavity (MtrE R113, N38; MtrC N188); two partially occupied conformations; putative assignment

## O=S(=O)(O)CCS [CoM]
  cryo-EM structure, 2.39 A: revealed the CoM binding site at the wall of the MtrCDE cavity
